The values that follow are results of earlier work, collected in patent US20040167197A1, “Compositions, combinations, and methods for treating cardiovascular conditions and other associated conditions” (priority 2003, published 2004).

The data set concerns rat model of cardiac hypertrophy and dysfunction.

Take `COc1nccc(-c2c(-c3ccc(F)cc3)ncn2[C@H]2CC[C@H](O)CC2)n1` [trans-1-(4-hydroxycyclohexyl)-4-(4-fluorophenylmethoxypyridimidin-4-yl)imidazole]: the hypertensive end-organ damage result is on record as “protected against”, the “plasma tumor necrosis factor (TNF-α)” value was “reduced” and the survival result is on record as “improved”.
